Assay results from ChEMBL document CHEMBL1201862, “PubChem BioAssay data set” (2004).
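Following 48 hours of exposure in 96-well plates, responses at five concentrations were used to interpolate endpoints linearly. Here, GI50 denotes the concentration required for 50% inhibition of growth.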 Calls of active or inactive are those of the source. Rule as the data show it: active = GI50 up to about 1.1 µM and inactive = higher.

Assays:
Experiment in all cases: inhibition of tumour cell growth, NCI panel, 48 h
786-0 = system: 786-0
A549 = system: A549
ACHN = system: ACHN
CAKI-1 = system: CAKI-1
CCRF-CEM = system: CCRF-CEM
COLO 205 = system: COLO 205
DLD-1 = system: DLD-1
DMS-114 = system: DMS-114
DMS-273 = system: DMS-273
EKVX = system: EKVX
HCC 2998 = system: HCC 2998
HCT-15 = system: HCT-15
HL-60 = system: HL-60
HOP-18 = system: HOP-18
HOP-62 = system: HOP-62
HOP-92 = system: HOP-92
HT-29 = system: HT-29
IGROV-1 = system: IGROV-1
K562 = system: K562
KM-20L2 = system: KM-20L2
KM12 = system: KM12
LOX IMVI = system: LOX IMVI
LXFL 529 = system: LXFL 529
M14 = system: M14
M19-MEL = system: M19-MEL
MOLT-4 = system: MOLT-4
Malme-3M = system: Malme-3M
NCI-H23 = system: NCI-H23
NCI-H460 = system: NCI-H460
NCI-H522 = system: NCI-H522
OVCAR-3 = system: OVCAR-3
OVCAR-4 = system: OVCAR-4
OVCAR-5 = system: OVCAR-5
OVCAR-8 = system: OVCAR-8
RPMI-8226 = system: RPMI-8226
RXF 393 = system: RXF 393
RXF 631 = system: RXF 631
SF-268 = system: SF-268
SF-295 = system: SF-295
SF-539 = system: SF-539
SK-MEL-28 = system: SK-MEL-28
SK-MEL-2 = system: SK-MEL-2
SK-MEL-5 = system: SK-MEL-5
SK-OV-3 = system: SK-OV-3
SN12C = system: SN12C
SNB-19 = system: SNB-19
SNB-75 = system: SNB-75
SW-620 = system: SW-620
TK-10 = system: TK-10
U-251 = system: U-251
UACC-257 = system: UACC-257
UACC-62 = system: UACC-62
UO-31 = system: UO-31
A498 = system: A498
HCT-116 = system: HCT-116
NCI-H226 = system: NCI-H226
SNB-78 = system: SNB-78
SR = system: SR

With `O=C(O)c1ccccc1C1c2ccc(Cl)cc2Oc2cc(Cl)ccc21` the GI50 (786-0) was > 100 µM (inactive), the GI50 (A549) was > 100 µM (inactive) and the GI50 (ACHN) was > 100 µM (inactive). The GI50 (CAKI-1) was > 100 µM (inactive), the GI50 (CCRF-CEM) was > 100 µM (inactive) and the GI50 (COLO 205) was > 100 µM (inactive). For the same molecule, the GI50 (DLD-1) was > 100 µM (inactive), the GI50 (DMS-114) was > 100 µM (inactive) and the GI50 (DMS-273) was > 100 µM (inactive). The GI50 (EKVX) was > 100 µM (inactive), the GI50 (HCC 2998) was > 100 µM (inactive) and the GI50 (HCT-15) was > 100 µM. The GI50 (HL-60) was > 100 µM (inactive), the GI50 (HOP-18) was > 100 µM (inactive) and the GI50 (HOP-62) was > 100 µM (inactive). The GI50 (HOP-92) was > 100 µM (inactive), the GI50 (HT-29) was > 100 µM (inactive) and the GI50 (IGROV-1) was > 100 µM (inactive). For the same molecule, the GI50 (K562) was > 100 µM (inactive), the GI50 (KM-20L2) was > 100 µM (inactive) and the GI50 (KM12) was > 100 µM (inactive). For the same molecule, the GI50 (LOX IMVI) was > 100 µM (inactive), the GI50 (LXFL 529) was > 100 µM (inactive) and the GI50 (M14) was > 100 µM (inactive). For the same molecule, the GI50 (M19-MEL) was > 100 µM (inactive), the GI50 (MOLT-4) was > 100 µM (inactive) and the GI50 (Malme-3M) was > 100 µM (inactive). The GI50 (NCI-H23) was > 100 µM (inactive), the GI50 (NCI-H460) was > 100 µM (inactive) and the GI50 (NCI-H522) was > 100 µM (inactive). For the same molecule, the GI50 (OVCAR-3) was > 100 µM (inactive), the GI50 (OVCAR-4) was > 100 µM (inactive) and the GI50 (OVCAR-5) was > 100 µM (inactive). For the same molecule, the GI50 (OVCAR-8) was > 100 µM (inactive), the GI50 (RPMI-8226) was > 100 µM (inactive) and the GI50 (RXF 393) was > 100 µM (inactive). The GI50 (RXF 631) was > 100 µM (inactive), the GI50 (SF-268) was > 100 µM (inactive) and the GI50 (SF-295) was > 100 µM (inactive). For the same molecule, the GI50 (SF-539) was > 100 µM (inactive), the GI50 (SK-MEL-28) was > 100 µM (inactive) and the GI50 (SK-MEL-2) was > 100 µM (inactive). For the same molecule, the GI50 (SK-MEL-5) was > 100 µM (inactive), the GI50 (SK-OV-3) was > 100 µM (inactive) and the GI50 (SN12C) was > 100 µM (inactive). For the same molecule, the GI50 (SNB-19) was > 100 µM (inactive), the GI50 (SNB-75) was > 100 µM (inactive) and the GI50 (SW-620) was > 100 µM (inactive). The GI50 (TK-10) was > 100 µM (inactive), the GI50 (U-251) was > 100 µM (inactive) and the GI50 (UACC-257) was > 100 µM (inactive). For the same molecule, the GI50 (UACC-62) was > 100 µM (inactive) and the GI50 (UO-31) was > 100 µM (inactive).

`c1ccc(NC[Si]23OCCN(CCO2)CCO3)cc1` was tested, and the GI50 (786-0) was > 100 µM (inactive), the GI50 (A498) was > 100 µM (inactive) and the GI50 (A549) was > 100 µM (inactive). The GI50 (ACHN) was > 100 µM (inactive), the GI50 (CAKI-1) was > 100 µM (inactive) and the GI50 (CCRF-CEM) was > 100 µM (inactive). For the same molecule, the GI50 (COLO 205) was > 100 µM (inactive), the GI50 (DLD-1) was > 100 µM (inactive) and the GI50 (DMS-114) was > 100 µM (inactive). For the same molecule, the GI50 (DMS-273) was > 100 µM (inactive), the GI50 (EKVX) was > 100 µM (inactive) and the GI50 (HCC 2998) was > 100 µM (inactive). The GI50 (HCT-116) was > 100 µM (inactive), the GI50 (HOP-18) was > 100 µM (inactive) and the GI50 (HOP-92) was > 100 µM (inactive). For the same molecule, the GI50 (HT-29) was > 100 µM (inactive), the GI50 (IGROV-1) was > 100 µM (inactive) and the GI50 (K562) was > 100 µM (inactive). The GI50 (KM12) was > 100 µM (inactive), the GI50 (LXFL 529) was > 100 µM (inactive) and the GI50 (M19-MEL) was > 100 µM (inactive). For the same molecule, the GI50 (MOLT-4) was > 100 µM (inactive), the GI50 (Malme-3M) was > 100 µM (inactive) and the GI50 (NCI-H226) was > 100 µM (inactive). For the same molecule, the GI50 (NCI-H23) was > 100 µM (inactive), the GI50 (NCI-H460) was > 100 µM (inactive) and the GI50 (NCI-H522) was > 100 µM (inactive). For the same molecule, the GI50 (OVCAR-3) was > 100 µM (inactive), the GI50 (OVCAR-5) was > 100 µM (inactive) and the GI50 (OVCAR-8) was > 100 µM (inactive). The GI50 (RPMI-8226) was > 100 µM (inactive), the GI50 (RXF 393) was > 100 µM (inactive) and the GI50 (RXF 631) was > 100 µM (inactive). For the same molecule, the GI50 (SF-268) was > 100 µM (inactive), the GI50 (SF-295) was > 100 µM (inactive) and the GI50 (SF-539) was > 100 µM (inactive). For the same molecule, the GI50 (SK-MEL-28) was > 100 µM (inactive), the GI50 (SK-MEL-2) was > 100 µM (inactive) and the GI50 (SK-MEL-5) was > 100 µM (inactive). The GI50 (SK-OV-3) was > 100 µM (inactive), the GI50 (SN12C) was > 100 µM (inactive) and the GI50 (SNB-19) was > 100 µM (inactive). The GI50 (SNB-75) was > 100 µM (inactive), the GI50 (SNB-78) was > 100 µM (inactive) and the GI50 (SR) was > 100 µM (inactive). For the same molecule, the GI50 (SW-620) was > 100 µM (inactive), the GI50 (TK-10) was > 100 µM (inactive) and the GI50 (U-251) was > 100 µM (inactive). The GI50 (UACC-257) was > 100 µM (inactive), the GI50 (UACC-62) was > 100 µM (inactive) and the GI50 (UO-31) was > 100 µM (inactive).

For `CC1=C2C3OC(=O)C(C)C3C(O)C[C@@]2(C)C(=O)CC1` (some centres undefined), the GI50 (786-0) was > 100 µM (inactive), the GI50 (A498) was > 100 µM (inactive) and the GI50 (A549) was > 100 µM (inactive). The GI50 (ACHN) was > 100 µM (inactive), the GI50 (CAKI-1) was > 100 µM (inactive) and the GI50 (CCRF-CEM) was > 100 µM (inactive). For the same molecule, the GI50 (COLO 205) was > 100 µM (inactive), the GI50 (DLD-1) was > 100 µM (inactive) and the GI50 (DMS-114) was > 100 µM (inactive). The GI50 (DMS-273) was > 100 µM (inactive), the GI50 (EKVX) was > 100 µM (inactive) and the GI50 (HCC 2998) was > 100 µM (inactive). The GI50 (HCT-116) was > 100 µM (inactive), the GI50 (HCT-15) was > 100 µM and the GI50 (HL-60) was > 100 µM (inactive). The GI50 (HOP-18) was > 100 µM (inactive), the GI50 (HOP-62) was > 100 µM (inactive) and the GI50 (HOP-92) was > 100 µM (inactive). The GI50 (HT-29) was > 100 µM (inactive), the GI50 (IGROV-1) was > 100 µM (inactive) and the GI50 (KM-20L2) was > 100 µM (inactive). The GI50 (KM12) was > 100 µM (inactive), the GI50 (LOX IMVI) was > 100 µM (inactive) and the GI50 (LXFL 529) was > 100 µM (inactive). For the same molecule, the GI50 (M14) was > 100 µM (inactive), the GI50 (M19-MEL) was > 100 µM (inactive) and the GI50 (MOLT-4) was > 100 µM (inactive). For the same molecule, the GI50 (Malme-3M) was > 100 µM (inactive), the GI50 (NCI-H226) was > 100 µM (inactive) and the GI50 (NCI-H460) was > 100 µM (inactive). The GI50 (NCI-H522) was > 100 µM (inactive), the GI50 (OVCAR-3) was > 100 µM (inactive) and the GI50 (OVCAR-4) was > 100 µM (inactive). For the same molecule, the GI50 (OVCAR-5) was > 100 µM (inactive), the GI50 (OVCAR-8) was > 100 µM (inactive) and the GI50 (RPMI-8226) was > 100 µM (inactive). For the same molecule, the GI50 (RXF 393) was > 100 µM (inactive), the GI50 (RXF 631) was > 100 µM (inactive) and the GI50 (SF-268) was > 100 µM (inactive). For the same molecule, the GI50 (SF-295) was > 100 µM (inactive), the GI50 (SF-539) was > 100 µM (inactive) and the GI50 (SK-MEL-28) was > 100 µM (inactive). For the same molecule, the GI50 (SK-MEL-5) was > 100 µM (inactive), the GI50 (SK-OV-3) was > 100 µM (inactive) and the GI50 (SN12C) was > 100 µM (inactive). For the same molecule, the GI50 (SNB-19) was > 100 µM (inactive), the GI50 (SNB-75) was > 100 µM (inactive) and the GI50 (SNB-78) was > 100 µM (inactive). For the same molecule, the GI50 (SR) was > 100 µM (inactive), the GI50 (SW-620) was > 100 µM (inactive) and the GI50 (TK-10) was > 100 µM (inactive). For the same molecule, the GI50 (U-251) was > 100 µM (inactive), the GI50 (UACC-257) was > 100 µM (inactive) and the GI50 (UACC-62) was > 100 µM (inactive). For the same molecule, the GI50 (UO-31) was > 100 µM (inactive).
